Reference: patent publication US20240238300A1, “TREATMENT METHODS FOR SUBJECTS WITH CANCER HAVING AN ABERRATION IN EGFR AND/OR HER2” (TAIHO PHARMACEUTICAL CO., LTD., priority 2021, published 2024)
Where two headings read alike, the source gives them in different places.

How the values were obtained:
[1] = pharmacokinetics after single oral administration; type: in vivo, male nude mice; conditions: plasma; for AUC(0-t): male, nude, mouse, read-out: AUC0-24
Description: Compound (1) was orally administered. The concentrations of Compound (1) were quantified using LC-MS/MS for the PK studies. ^13C-labeled Compound (1) was used as an internal standard.
Pharmacokinetics in nude mice after single oral administration. Plasma concentration profiles and PK parameters of Compound (1) were determined in male nude mice following a single oral administration at doses of 6.25, 12.5, and 25 mg/kg (FIGS. 4A and 4B, and Table 4). The Cmax, AUClast, and AUC0-24 values increased in a dose dependent manner.

[2] = tested on: NCI-N87 tumor fragment #6, clone 3; assay: refractory T-DM1 monoclonal cell line model, comparison to DS-8201a; type: in vivo, male mice; conditions: for antitumor effect (tumor volume): 21 days
Description: The obtained cell line was implanted into BALB/cAJcl-mu/nu male mice (8.0×10^6 cells in 100 μL of PBS/mouse, subcutaneous) for the efficacy test.
The tumor volumes (TV, mm) and body weights of the mice were recorded.

[3] = tested on: intracranial NCI-N87-luc human gastric carcinoma xenografts; assay: intracranial antitumor effect with various dosing schedules, NCI-N87-luc xenografts; type: in vivo, nude mice; conditions: Day 22; for T/C ratio of the mean total flux: 21 days
Description: The intracranial antitumor effect of Compound (1) with various dosing schedules ((i) QD, (ii) intermittent, and (iii) 4 days-on/3 days-off) was evaluated using Compound (1) in nude mice intracranially implanted with NCI-N87-luc cells, which were engineered to stably express the luciferase gene using the HER2-overexpressing NCI-N87 human gastric carcinoma cell line.
Compound (1) dosing suspensions using 0.5% weight per volume (w/v) hydroxypropyl methylcellulose (HPMC) as vehicle were prepared with Compound (1) at 2 dose levels (25.0 or 50.0 mg/kg/day) and orally administered with various dosing schedules ((i) QD, (ii) intermittent, and (iii) 4 days-on/3 days-off) for 21 days. The (i) QD dosing schedule in this example was dosing every day on day 1 to day 21. The (ii) intermittent dosing schedule in this example used sequential 7-day periods that each comprise alternating 4 days-on and 3 days-off. That is, this schedule involved dosing on days 1, 3, 5, 7, 8, 10, 12, 14, 15, 17, 19, and 21. The (iii) 4 days-on/3 days-off dosing schedule was dosing on days 1, 2, 3, 4, 8, 9, 10, 11, 15, 16, 17, and 18. The control group received 0.5% w/v HPMC solution orally once daily for 21 days.

[4] = target: T1, human BCRP (Homo sapiens, UniProt Q9UNQ0); assay: in vitro
T1 sequence (Q9UNQ0 1-655): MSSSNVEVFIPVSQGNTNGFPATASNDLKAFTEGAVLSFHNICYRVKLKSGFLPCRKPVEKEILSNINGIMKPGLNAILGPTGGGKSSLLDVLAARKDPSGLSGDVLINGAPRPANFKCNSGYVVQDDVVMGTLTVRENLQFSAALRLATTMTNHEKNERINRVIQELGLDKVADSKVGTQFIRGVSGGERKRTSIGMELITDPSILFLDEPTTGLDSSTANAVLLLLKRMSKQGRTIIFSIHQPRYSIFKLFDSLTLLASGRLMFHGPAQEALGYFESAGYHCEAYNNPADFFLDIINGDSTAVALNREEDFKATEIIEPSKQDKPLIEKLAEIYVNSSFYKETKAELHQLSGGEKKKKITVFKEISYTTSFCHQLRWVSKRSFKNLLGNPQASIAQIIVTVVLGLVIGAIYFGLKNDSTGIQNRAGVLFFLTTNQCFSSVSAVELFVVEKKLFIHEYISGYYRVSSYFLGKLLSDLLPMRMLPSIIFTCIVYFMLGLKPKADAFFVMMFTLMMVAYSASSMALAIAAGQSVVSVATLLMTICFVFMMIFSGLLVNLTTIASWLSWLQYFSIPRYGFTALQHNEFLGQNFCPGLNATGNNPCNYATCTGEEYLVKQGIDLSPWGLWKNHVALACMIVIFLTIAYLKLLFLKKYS

[5] = target: T1, human BCRP; assay: substrate susceptibility on human BCRP, bidirectional transcellular transport, BCRP/MDCK II cells; type: in vitro ADME; set-up: expressed in transfected cells; host or cells: MDCK II (canine kidney) cells expressing human BCRP; parent MDCK II as control
Description: Substrate susceptibility of Compound (1) on human BCRP. Time-dependence of the bidirectional transcellular transport of 0.3, 0.5, 1, 3, and 30 μmol/L Compound (1) across human BCRP/Madin-Darby canine kidney II (MDCK II) cells and parent/MDCK II cells was analyzed.

[6] = (ii) intermittent 50.0 mg/kg/day
[7] = (iii) 4 days-on/3 days-off 50.0 mg/kg/day

For `C=CC(=O)N1C[C@H](n2c(C#CC3CC3)c(C(=O)N[C@H](C)c3ccccc3)c3c(N)ncnc32)C[C@@H]1C` [Compound (1), 7-((3R,5S)-1-acryloyl-5-methylpyrrolidin-3-yl)-4-amino-6-(cyclopropylethynyl)-N—((R)-1-phenylethyl)-7H-pyrrolo[2,3-d]pyrimidine-5-carboxamide], the AUC(0-t) ([1]; single oral 6.25 mg/kg) was 822 ± 208 ng·h/mL, the AUC(0-t) ([1]; single oral 25 mg/kg) was 5230 ± 620 ng·h/mL and the AUClast ([1]; single oral 6.25 mg/kg) was 795 ± 229 ng·h/mL. For the same compound, the Cmax ([1]; single oral 6.25 mg/kg) was 601 ± 111 ng/mL, the Tmax ([1]; single oral 6.25 mg/kg) was 19.8 ± 8.4 min and the AUC0-24 ([1]; single oral 12.5 mg/kg) was 2010 ± 230 ng·h/mL. The AUClast ([1]; single oral 12.5 mg/kg) was 2010 ± 230 ng·h/mL, the Cmax ([1]; single oral 12.5 mg/kg) was 1590 ± 220 ng/mL and the Tmax ([1]; single oral 12.5 mg/kg) was 15 ± 0 min. For the same compound, the AUClast ([1]; single oral 25 mg/kg) was 5080 ± 820 ng·h/mL, the Cmax ([1]; single oral 25 mg/kg) was 3580 ± 190 ng/mL and the Tmax ([1]; single oral 25 mg/kg) was 15 ± 0 min. For the same compound, the “antitumor effect (tumor volume)” value ([2]; 12.5 mg/kg/day PO once per day) was “arresting tumor growth”, the “antitumor effect (tumor volume)” value ([2]; 20 mg/kg/day PO once per day) was “inducing tumor regression” and the body weight loss ([2]; 12.5 or 20 mg/kg) was “did not cause body weight loss”. The “T/C ratio of the mean total flux” value [3, 6] was 3.8%, the “mean body weight change” value [3, 6] was −1.0% and the “T/C ratio of the mean total flux” value [3, 7] was 8.9%. The “mean body weight change” value [3, 7] was 0.3%, the activity at 3 h, 0.01 μmol/L [4] was 114% and the activity at 3 h, 0.1 μmol/L [4] was 95%. For the same compound, the activity at 3 h, 0.5 μmol/L [4] was 54%, the activity at 3 h, 1 μmol/L [4] was 24% and the activity at 3 h, 5 μmol/L [4] was 10%. For the same compound, the activity at 3 h, 10 μmol/L [4] was 3%, the “concentration at which transport via human BCRP is saturable” value [5] was over 1000 nM and the net flux ratio ([5]; 0.3 μmol/L Compound (1), 4 hours) was 1.5±0.6. The net flux ratio ([5]; 0.5 μmol/L Compound (1) with 10 μmol/L Ko143, 3 hours) was 1.2±0.2, the net flux ratio ([5]; 0.5 μmol/L Compound (1) with 10 μmol/L Ko143, 4 hours) was 1.2±0.2 and the net flux ratio ([5]; 0.5 μmol/L Compound (1), 2 hours) was 1.9±0.9. For the same compound, the net flux ratio ([5]; 0.5 μmol/L Compound (1), 3 hours) was 3.0±0.9, the net flux ratio ([5]; 0.5 μmol/L Compound (1), 4 hours) was 2.7±0.8 and the net flux ratio ([5]; 1 μmol/L Compound (1) with 10 μmol/L Ko143, 4 hours) was 1.4±0.2. The net flux ratio ([5]; 1 μmol/L Compound (1), 2 hours) was 2.3±0.7, the net flux ratio ([5]; 1 μmol/L Compound (1), 3 hours) was 1.8±0.4 and the net flux ratio ([5]; 1 μmol/L Compound (1), 4 hours) was 2.2±0.7. It also gave a net flux ratio ([5]; 3 μmol/L Compound (1), 2 hours) of 2.0±0.3, a net flux ratio ([5]; 3 μmol/L Compound (1), 3 hours) of 1.6±0.3 and a net flux ratio ([5]; 3 μmol/L Compound (1), 4 hours) of 1.5±0.2. It also gave a net flux ratio ([5]; 30 μmol/L Compound (1), 2 hours) of 1.4±0.3, a net flux ratio ([5]; 30 μmol/L Compound (1), 3 hours) of 1.1±0.1 and a net flux ratio ([5]; 30 μmol/L Compound (1), 4 hours) of 1.2±0.1. For the same compound, the “substrate susceptibility on human BCRP” value ([5]; criterion net flux ratio exceeding 2) was “substrate of BCRP”.
